Experimental data reported in patent US20060160095A1, “Survivin” (EiRx Therapeutics Limited, priority 2002, published 2006).

Tests used:
[1] = tested on: Primary human neutrophils; assay: MTT survival assay of neutrophils cultured with GM-CSF, with or without gliotoxin; type: cell-based
Method: Primary human neutrophils are isolated and purified from peripheral blood of normal healthy individuals. Neutrophils are resuspended in serum containing culture medium together with various amounts of GM-CSF at a density of 2×10^6/ml, with 100 μl plated into a 96 well plate and cultured for 18 h at 37° C. After this time 10 μl of MTT (5 mg/ml) is added to the cultures and incubated for a further 4 h at 37° C. before solubilisation of the purple coloured formazan with acidic isopropanol. Optical densities are read at 570 nm using a plate reader.
Primary human neutrophils are isolated and purified from peripheral blood of normal healthy individuals. Neutrophils are resuspended in serum containing culture medium containing 5 U/ml of GM-CSF at a concentration of 2×10^6/ml. […] After the indicated time, 10 μl of MTT (5 mg/ml) are added to the cultures and incubated for a further 4 h at 37° C. before solubilisation of the purple coloured formazan with acidic isopropanol. Optical densities are read at 570 nm using a plate reader.

Survivin mRNA = assay: LifeGrid microarray of Survivin transcripts in neutrophils; type: cell-based, human; details: gliotoxin added in the presence of GM-CSF
Method: Primary human neutrophils are isolated and purified from peripheral blood of normal healthy individuals using standard techniques. Neutrophils are resuspended in serum containing culture medium together with GM-CSF (50 U) at a concentration of 2×10^6/ml, and cultured for 0 h (control), 2 h, 4 h and 6 h at 37° C. Total RNA is then prepared from both groups using acid phenol/guanidine isothiocyanate extraction (RNAzol B; Biogenesis), or RNeasy RNA preparation kits (Qiagen). Any contaminating genomic DNA is removed by DNase treatment (DNase I, Gibco-BRL). […]
This example describes the use of a STORM Phosphoimager to quantitatively image positive signals across the filter arrays. […]
The captured image file is then analysed using software such as Array Vision (Imaging Research Inc.; See FIG. 5). […] This program contains facilities for spot detection and quantification, and background detection and quantification. […] As the data is imported to the database, a Normalisation factor is calculated and the sDENs values modified accordingly. […] A normalization factor may be derived from Linear Regression calculated by reference to housekeeping genes. Alternatively, the Global Mean is calculated as the average of the sDens values across all of the arrays to be compared and a normalisation factor is then derived by division of the overall spot density with the Global Mean value. […]

HL60 cells = assay: DNA fragmentation by agarose gel electrophoresis in differentiated HL60 cells; type: cell-based; details: 10 μM Retinoic acid
Method: HL60 cells are seeded at 5×10^6cells in T25 flasks and incubated with 10 μM Retinoic acid for 24, 48, 72, 96, 120 and 144 hrs. Mock treated HL-60 cells were used as a control. Cellular DNA was analysed for fragmentation into oligonucleosomal-size fragments and their multiples by agarose gel electrophoresis. Lanes 1,3,5,7,9,11 contain DNA from HL-60 cells that were differentiated with 10 μM Retinoic Acid over the indicated period whereas samples in lanes 2,4,6,8,10,12,14 are from control HL-60 cells treated for the same time period. Lane 15 is a 1 Kb Plus Ladder Molecular Marker.

Neutrophils = assay: Neutrophil survival with BAL or GM-CSF after antisense/missense oligonucleotides (Example 7); type: cell-based, human; details: oligonucleotides 0 to 10 μM
Method: Neutrophils are purified as normal and resuspended in culture medium (RPMI+10% FCS) to give a final conc. of 2×10^6/ml. Five hundred microlitres are added to each well of a 24 well plate, to give a final concentration of 1×10^6/well.
Either antisense or missense oligonucleotides are added directly to each well over a range of concentrations between 0 μM to 10 μM.
Cells are then incubated for time intervals between 15 mins to 8 hours. Bronchoalveolar lavage (BAL) fluid, obtained from patients with chronic inflammation, including cystic fibrosis, chronic obstructive pulmonary disease or healthy controls, is then added to each well. As a positive control for increased survival, neutrophils are treated with GM-CSF (0 to 20 units).
Neutrophil apoptosis is measured as described in Example 1.

In the case of `CN1C(=O)[C@]23CC4=CC=C[C@H](O)[C@H]4N2C(=O)[C@@]1(CO)SS3` [gliotoxin, Gliotoxin], the “block of the GM-CSF inhibition of neutrophil apoptosis (MTT)” value ([1]; 0.1 μg/ml added with 5 U/ml GM-CSF) is reported as “effectively blocks”, the “neutrophil apoptosis with the compound alone (MTT)” value ([1]; added alone to isolated neutrophils, no GM-CSF) is reported as “No increased neutrophil apoptosis” and the “Increased expression of Survivin following GM-CSF treatment” value (Survivin mRNA) is reported as “blocked”.

`CC1=C(/C=C/C(C)=C/C=C/C(C)=C/C(=O)O)C(C)(C)CCC1` [retinoic acid, Retinoic acid] was tested, and the “onset of apoptosis after differentiation” value (HL60 cells) was ~4 days.

In the case of “5′-CCCAgCCTTCCAgCTCCTTg-3′ (antisense 5'-CCCAgCCTTCCAgCTCCTTg-3'; as printed in the source, key not given here) [antisense Survivin oligonucleotides]”, the “survival of neutrophils treated with BAL” value (Neutrophils; BAL derived from patients with chronic inflammation) is reported as “inhibits the survival” and the “survival of neutrophils treated with control cytokine GM-CSF” value (Neutrophils; GM-CSF as control cytokine) is reported as “inhibits the survival”.
